Values after ≈ are worked out from the molar mass of the structure shown. Active and inactive are the calls of the source. The calls are words filed in the database; no cut-off is given here. Bridge positions count the residues as written; N and C are the ends. Square brackets hold non-standard residues; d marks the D form. Peptide text beside a SMILES is read from it. * marks the point of attachment. ξ: configuration not given here. Hexanoyl(4ξ-Me) = CCC(C)CCC(=O)*; dOrn = NCCC[C@@H](N)C(=O)O; Orn = NCCC[C@H](N)C(=O)O
Columns and labels:
Pseudomonas aeruginosa [1] = experiment: Antibacterial activity against Pseudomonas aeruginosa ATCC 27853 assessed as fold increase in MIC pretreated with KCl followed by compound addition and measured after 2 hrs by broth microdilution method; type: functional
Staphylococcus aureus [2] = experiment: Antibacterial activity against Staphylococcus aureus ATCC 25923 at sub-MIC measured after 20 days in presence of rifampicin; type: functional, organism-based; settings: time 20.0 day
Staphylococcus aureus [3] = experiment: In vivo antibacterial activity against Staphylococcus aureus ATCC 25923 infected in BALB/c mouse model assessed as reduction in bacterial count in spleen at 10 mg/kg, ip preadministered with compound for 1 hr followed by bacterial infection and measured after 6 hrs […]; type: functional, organism-based; settings: time 7.0 hrs
Staphylococcus aureus [4] = experiment: Antibiofilm activity against Staphylococcus aureus ATCC 25923 at 1/2 to 4 times MIC measured after 24 hrs by crystal violet staining based analysis; type: functional, organism-based
Pseudomonas aeruginosa [5] = experiment: Antibacterial activity against Pseudomonas aeruginosa ATCC 27853 pretreated with FeCl3 followed by compound addition and measured after 2 hrs by broth microdilution method (reference value: 2 microM); type: functional
Pseudomonas aeruginosa [6] = experiment: Antibacterial activity against Pseudomonas aeruginosa ATCC 27853 pretreated with KCl followed by compound addition and measured after 2 hrs by broth microdilution method (reference value: 2 microM); type: functional
Pseudomonas aeruginosa [7] = experiment: Antibacterial activity against Pseudomonas aeruginosa ATCC 27853 pretreated with Mgcl2 followed by compound addition and measured after 2 hrs by broth microdilution method (reference value: 2 microM); type: functional
Pseudomonas aeruginosa [8] = experiment: Antibacterial activity against Pseudomonas aeruginosa ATCC 27853 pretreated with 5% mouse serum followed by compound addition and measured after 6 hrs by broth microdilution method (reference value: 2 microM); type: functional
Staphylococcus aureus [9] = experiment: In vivo antibacterial activity against Staphylococcus aureus ATCC 25923 infected in BALB/c mouse model assessed as amelioration of pathological changes in kidney at 5 to 10 mg/kg, ip measured after 7 hrs by H and E staining based analysis; type: functional, organism-based; settings: dose 5-10 mg/kg
Pseudomonas aeruginosa [10] = experiment: Antibacterial activity against Pseudomonas aeruginosa ATCC 27853 pretreated with 20% mouse serum followed by compound addition and measured after 1 hr by broth microdilution method (reference value: 2 microM); type: functional
Pseudomonas aeruginosa [11] = experiment: Antibacterial activity against Pseudomonas aeruginosa ATCC 27853 pretreated with 5% mouse serum followed by compound addition and measured after 1 hr by broth microdilution method (reference value: 2 microM); type: functional
Staphylococcus aureus [12] = experiment: Antibacterial activity against Staphylococcus aureus ATCC 25923 at sub-MIC measured after 20 days in presence of gentamicin; type: functional, organism-based; settings: time 20.0 day
[13] = test system: Staphylococcus epidermidis; experiment: Antibacterial activity against Staphylococcus epidermidis ATCC 12228 incubated for 18 to 24 hrs by broth microdilution method; type: functional; settings: time 18-24 hrs
Pseudomonas aeruginosa [14] = experiment: Antibacterial activity against Pseudomonas aeruginosa ATCC 27853 assessed as fold increase in MIC pretreated with ZnCl2 followed by compound addition and measured after 2 hrs by broth microdilution method; type: functional
Bacillus subtilis = experiment: Antibacterial activity against Bacillus subtilis ATCC 23857 incubated for 18 to 24 hrs by broth microdilution method; type: functional; settings: time 18-24 hrs
Pseudomonas aeruginosa [15] = experiment: Antimicrobial activity against Pseudomonas aeruginosa ATCC 27853 assessed as reduction in microbial growth at 2 times MIC measured for 18 hrs in presence of 256 microg/ml LPS; type: functional, organism-based
Pseudomonas aeruginosa [16] = experiment: Antibacterial activity against Pseudomonas aeruginosa ATCC 27853 pretreated with 10% mouse serum followed by compound addition and measured after 6 hrs by broth microdilution method (reference value: 2 microM); type: functional
[17] = Retention time of the compound in mouse serum by RP-HPLC analysis; type: ADME, cell-free
Pseudomonas aeruginosa [18] = experiment: Antibacterial activity against Pseudomonas aeruginosa ATCC 27853 at sub-MIC measured after 20 days in presence of rifampicin; type: functional, organism-based; settings: time 20.0 day
Klebsiella pneumoniae = experiment: Antibacterial activity against Klebsiella pneumoniae ATCC 700603 incubated for 18 to 24 hrs by broth microdilution method; type: functional; settings: time 18-24 hrs
Staphylococcus aureus [19] = experiment: In vivo antibacterial activity against Staphylococcus aureus ATCC 25923 infected in BALB/c mouse model assessed as amelioration of pathological changes in spleen at 5 to 10 mg/kg, ip measured after 7 hrs by H and E staining based analysis; type: functional, organism-based; settings: dose 5-10 mg/kg
Pseudomonas aeruginosa [20] = experiment: Antibacterial activity against Pseudomonas aeruginosa ATCC 27853 pretreated with Zncl2 followed by compound addition and measured after 2 hrs by broth microdilution method (reference value: 2 microM); type: functional
Staphylococcus aureus [21] = experiment: In vivo antibacterial activity against Staphylococcus aureus ATCC 25923 infected in BALB/c mouse model assessed as amelioration of pathological changes in liver at 5 to 10 mg/kg, ip measured after 7 hrs by H and E staining based analysis; type: functional, organism-based; settings: dose 5-10 mg/kg
Staphylococcus aureus [22] = experiment: Antibacterial activity against Staphylococcus aureus ATCC 25923 incubated for 18 to 24 hrs by broth microdilution method; type: functional; settings: time 18-24 hrs
Acinetobacter baumannii = experiment: Antibacterial activity against Acinetobacter baumannii ATCC 19606 incubated for 18 to 24 hrs by broth microdilution method; type: functional; settings: time 18-24 hrs
Pseudomonas aeruginosa [23] = experiment: Antibacterial activity against Pseudomonas aeruginosa ATCC 27853 pretreated with 2.5% mouse serum followed by compound addition and measured after 1 hr by broth microdilution method (reference value: 2 microM); type: functional
Pseudomonas aeruginosa [24] = experiment: Antibacterial activity against Pseudomonas aeruginosa ATCC 27853 pretreated with 20% mouse serum followed by compound addition and measured after 6 hrs by broth microdilution method (reference value: 2 microM); type: functional
Escherichia coli = experiment: Antibacterial activity against Escherichia coli ATCC 25922 incubated for 18 to 24 hrs by broth microdilution method; type: functional; settings: time 18-24 hrs
Pseudomonas aeruginosa [25] = experiment: Antibacterial activity against Pseudomonas aeruginosa ATCC 27853 pretreated with 10% mouse serum followed by compound addition and measured after 1 hr by broth microdilution method (reference value: 2 microM); type: functional
Enterococcus faecalis = experiment: Antibacterial activity against Enterococcus faecalis ATCC 29212 incubated for 18 to 24 hrs by broth microdilution method; type: functional; settings: time 18-24 hrs
Pseudomonas aeruginosa [26] = experiment: Antibacterial activity against Pseudomonas aeruginosa ATCC 27853 pretreated with Na-cl followed by compound addition and measured after 2 hrs by broth microdilution method (reference value: 2 microM); type: functional
Pseudomonas aeruginosa [27] = experiment: Antibacterial activity against Pseudomonas aeruginosa ATCC 27853 pretreated with 2.5% mouse serum followed by compound addition and measured after 6 hrs by broth microdilution method (reference value: 2 microM); type: functional
Pseudomonas aeruginosa [28] = experiment: Antibacterial activity against Pseudomonas aeruginosa ATCC 27853 incubated for 18 to 24 hrs by broth microdilution method; type: functional; settings: time 18-24 hrs
Staphylococcus aureus [29] = experiment: In vivo antibacterial activity against Staphylococcus aureus ATCC 25923 infected in BALB/c mouse model assessed as reduction in bacterial count in kidney at 10 mg/kg, ip preadministered with compound for 1 hr followed by bacterial infection and measured after 6 hrs […]; type: functional, organism-based; settings: time 7.0 hrs
Pseudomonas aeruginosa [30] = experiment: Antibacterial activity against Pseudomonas aeruginosa ATCC 27853 at sub-MIC measured after 20 days in presence of gentamicin; type: functional, organism-based; settings: time 20.0 day
Pseudomonas aeruginosa [31] = experiment: Antibiofilm activity against Pseudomonas aeruginosa ATCC 27853 at 1/2 to 4 times MIC measured after 24 hrs by crystal violet staining based analysis; type: functional, organism-based
Pseudomonas aeruginosa [32] = experiment: Induction of morphological changes in Pseudomonas aeruginosa ATCC 27853 assessed as leakage of cellular content at 2 times MIC measured after 0.5 hrs by SEM based analysis; type: functional, organism-based

Row | Compound | Activity (Staphylococcus aureus [2]) | Activity (Staphylococcus aureus [4]) | MIC (Pseudomonas aeruginosa [5]) | MIC (Pseudomonas aeruginosa [6]) | MIC (Pseudomonas aeruginosa [7]) | MIC (Pseudomonas aeruginosa [8]) | MIC (Pseudomonas aeruginosa [10]) | MIC (Pseudomonas aeruginosa [11]) | Activity (Staphylococcus aureus [12]) | MIC [13] | MIC (Bacillus subtilis) | MIC (Pseudomonas aeruginosa [16]) | Activity (Pseudomonas aeruginosa [18]) | MIC (Klebsiella pneumoniae) | MIC (Pseudomonas aeruginosa [20]) | MIC (Staphylococcus aureus [22]) | MIC (Acinetobacter baumannii) | MIC (Pseudomonas aeruginosa [23]) | MIC (Pseudomonas aeruginosa [24]) | MIC (Escherichia coli) | further results
1 | CCCCCCCCCC(=O)N[C@H](CCCN)C(=O)N[C@H](Cc1ccc(O)cc1)C(=O)N[C@H](Cc1c[nH]c2ccccc12)C(=O)N[C@H](CCCN)C(=O)N[C@@H](CCCN)C(=O)NCC(=O)N[C@H](CCCN)C(=O)N[C@@H](Cc1c[nH]c2ccccc12)C(=O)N[C@H](C(=O)N[C@H](C(=O)NCC(=O)N[C@@H](CO)C(=O)O)[C@@H](C)CC)[C@@H](C)O | Active | Active | < 1 µM | 2 µM (≈ 3.16 µg/mL) | 2 µM (≈ 3.16 µg/mL) | 2 µM (≈ 3.16 µg/mL) | 4 µM (≈ 6.32 µg/mL) | 2 µM (≈ 3.16 µg/mL) | Active | 4 µM (≈ 6.32 µg/mL) | 2 µM (≈ 3.16 µg/mL) | 4 µM (≈ 6.32 µg/mL) | Active | 4 µM (≈ 6.32 µg/mL) | 2 µM (≈ 3.16 µg/mL) | 8 µM (≈ 12.6 µg/mL) | 4 µM (≈ 6.32 µg/mL) | 2 µM (≈ 3.16 µg/mL) | 8 µM (≈ 12.6 µg/mL) | 4 µM (≈ 6.32 µg/mL) | fold change (FC) (Pseudomonas aeruginosa [1]): 8; Activity (Staphylococcus aureus [3]): Active; Activity (Staphylococcus aureus [9]): Active; fold change (FC) (Pseudomonas aeruginosa [14]): 8; Activity (Pseudomonas aeruginosa [15]): inactive; Retention_time [17]: 15.312 min; Activity (Staphylococcus aureus [19]): Active; Activity (Staphylococcus aureus [21]): Active; MIC (Pseudomonas aeruginosa [25]): 2 µM (≈ 3.16 µg/mL); MIC (Enterococcus faecalis): 16 µM (≈ 25.3 µg/mL); MIC (Pseudomonas aeruginosa [26]): 2 µM (≈ 3.16 µg/mL); MIC (Pseudomonas aeruginosa [27]): 2 µM (≈ 3.16 µg/mL); MIC (Pseudomonas aeruginosa [28]): 2 µM (≈ 3.16 µg/mL); Activity (Staphylococcus aureus [29]): Active; Activity (Pseudomonas aeruginosa [30]): Active; Activity (Pseudomonas aeruginosa [31]): Active
2 | CCC(C)CCC(=O)N[C@H](CC(N)=O)C(=O)N[C@H](Cc1ccc(O)cc1)C(=O)N[C@H](Cc1c[nH]c2ccccc12)C(=O)N[C@H](CCCN)C(=O)N[C@@H](CCCN)C(=O)NCC(=O)N[C@H](CCCN)C(=O)N[C@@H](Cc1c[nH]c2ccccc12)C(=O)N[C@@H]1C(=O)N[C@@H]([C@@H](C)CC)C(=O)NCC(=O)N[C@@H](CO)C(=O)O[C@@H]1C (stereo partly specified) ({Hexanoyl(4ξ-Me)}-[dN][dY][dW][dOrn][Orn]G[dOrn]WTIGS; ester 9-C) | Active | Active | 4 µM (≈ 6.08 µg/mL) | 8 µM (≈ 12.2 µg/mL) | 8 µM (≈ 12.2 µg/mL) | 8 µM (≈ 12.2 µg/mL) | 4 µM (≈ 6.08 µg/mL) | 2 µM (≈ 3.04 µg/mL) | Active | 32 µM (≈ 48.6 µg/mL) | 8 µM (≈ 12.2 µg/mL) | 8 µM (≈ 12.2 µg/mL) | Active | 2 µM (≈ 3.04 µg/mL) | 4 µM (≈ 6.08 µg/mL) | 64 µM (≈ 97.3 µg/mL) | 8 µM (≈ 12.2 µg/mL) | 2 µM (≈ 3.04 µg/mL) | 16 µM (≈ 24.3 µg/mL) | 2 µM (≈ 3.04 µg/mL) | Activity (Pseudomonas aeruginosa [32]): Active; fold change (FC) (Pseudomonas aeruginosa [1]): 4; fold change (FC) (Pseudomonas aeruginosa [14]): 2; Retention_time [17]: 14.82 min; MIC (Pseudomonas aeruginosa [25]): 4 µM (≈ 6.08 µg/mL); MIC (Enterococcus faecalis): 64 µM (≈ 97.3 µg/mL); MIC (Pseudomonas aeruginosa [26]): 4 µM (≈ 6.08 µg/mL); MIC (Pseudomonas aeruginosa [27]): 8 µM (≈ 12.2 µg/mL); MIC (Pseudomonas aeruginosa [28]): 2 µM (≈ 3.04 µg/mL); Activity (Pseudomonas aeruginosa [30]): Active; Activity (Pseudomonas aeruginosa [31]): Active
3 | POLYMYXIN B | Active | Active | < 1 µM | < 1 µM | 2 µM | 2 µM | 2 µM | 2 µM | Active | 32 µM | 8 µM | 4 µM | Active | 4 µM | < 1 µM | 16 µM | 1 µM | 2 µM | 4 µM | 2 µM | Activity (Pseudomonas aeruginosa [32]): Active; Activity (Staphylococcus aureus [3]): Active; Activity (Staphylococcus aureus [9]): Active; Activity (Pseudomonas aeruginosa [15]): inactive; Activity (Staphylococcus aureus [19]): Active; Activity (Staphylococcus aureus [21]): Active; MIC (Pseudomonas aeruginosa [25]): 2 µM; MIC (Enterococcus faecalis): 128 µM; MIC (Pseudomonas aeruginosa [26]): < 1 µM; MIC (Pseudomonas aeruginosa [27]): 2 µM; MIC (Pseudomonas aeruginosa [28]): 2 µM; Activity (Staphylococcus aureus [29]): Active; Activity (Pseudomonas aeruginosa [30]): Active; Activity (Pseudomonas aeruginosa [31]): Active

Source: ChEMBL document CHEMBL5512645, “A novel antimicrobial peptide with broad-spectrum and exceptional stability derived from the natural peptide Brevicidine” (Eur J Med Chem, 2024)
